Source: patent US20250186436A1 (4E Therapeutics, Inc., priority 2021, published 2025)
Several values for one entry are separate records, joined by “and”; a condition that tells them apart may be missing. Identical values can stand only once. Like-named read-outs stand apart in the source and are kept apart here.

Experiments:
[1] = system: eIF4E phosphorylation in mouse tissues; experiment: In vivo biochemical assay (Western blot) of eIF4E phosphorylation in mouse tissues; details: mice, PO 10 mg/kg
Description: […] Tissues were acutely dissected and immediately frozen. Frozen samples were later bead homogenized with protease and phosphatase inhibitor cocktails present in the homogenization buffer and then protein was quantified by Bradford assay. 20 μg of protein was run per lane on standard SDS-PAGE. Blots were probed with antibodies against p-eIF4E and total-eIF4E and imaged on a BioRad imaging system. […] However, inhibition of phosphorylation of eIF4E in the brain was not observed, as determined by Western blot analysis of brain tissue from the cortex.

[2] = system: Wistar rats; experiment: Intravenous self-administration with oxycodone and saline regimen; assay type: in vivo; details: rat, in vivo
Description: Ten male and eleven female Wistar rats (Charles River, Hollister, CA) were used in this study. Rats were housed in groups of 2-3 per cage prior to surgery, and then individually housed to protect their catheters, in a temperature-controlled (22° C.) vivarium on a 12/12h light/dark cycle (lights off at 8:00 AM) with ad libitum access to food and water. The rats acclimated to the animal facility for at least 7 days before surgery. All procedures adhered to the National Institutes of Health Guide for the Care and Use of Laboratory Animals and were approved by the Institutional Animal Care and Use Committee of The Scripps Research Institute.
For surgery, rats were anesthetized with 2 to 3% isoflurane. They were implanted with a silastic catheter (0.3 mm i.d.×0.64 mm o.d.; Dow Corning Co. Midland, MI) into the right external jugular vein under aseptic conditions. The distal end of the catheter was subcutaneously threaded to the back of the rat where it exited via a metal guide cannula (22G; Plastics One Inc., Roanoke, VA) that was anchored at the back of the rat and closed with a small plastic cap and metal cover cap to keep the inside part of the catheter clean and protected (Caine S B, et al. “Effects of dopamine D-1 and D-2 antagonists on cocaine self-administration under different schedules of reinforcement in the rat” J Pharmacol Exp Ther. 270(1):209-18 (1994); Wee S, et al. “Effects of dose and session duration on cocaine self-administration in rats” J Pharmacol Exp Ther. 320(3):1134-43 (2007); Zorrilla E P, et al. “Extended access cocaine self-administration differentially activates dorsal raphe and amygdala corticotropin-releasing factor systems in rats” Addict Biol. 17(2):300-8 (2012); Valtcheva M V, et al. “Surgical extraction of human dorsal root ganglia from organ donors and preparation of primary sensory neuron cultures” Nat Protoc. 11:1877-1888 (2016)). All incisions were closed using veterinary tissue adhesive. After surgery, rats were given analgesic (Flunixin, 2.5 mg/kg s.c.).
Rats were allowed 5-7 days for recovery prior to self-administration.
The patency of catheters in the rats was tested using an ultra-short-acting barbiturate methohexital sodium (Brevital, Eli Lilly, Indianapolis, 1N, 10 mg/mL, 2 mg/rat) every 10-12 days during the study. Generally, a total loss of muscle tone within 3 s after a methohexital sodium injection indicates the patency of a catheter. Any animal that failed the test was excluded from the study.
During experimental sessions, each rat was placed in a standard operant chamber, which was placed in a light- and sound-attenuating cubicle (28×26×20 cm; Med Associates Inc., St. Albans, VT). The front door and the back wall of the chamber were made of transparent plastic, and the other walls were opaque metal. The chamber had two retractable response levers mounted on one side of the opaque walls. A stimulus light was mounted above each lever. A drug injection was delivered by a syringe pump (Razel Scientific Instruments, Georgia, VT) located on top of the cubicle. Experimental sessions were controlled and recorded by a PC computer with custom interface and software in the experimental room.
Experimental sessions were conducted once a day, 5-7 days a week during the dark (active) cycle. After being flushed with 0.9% saline, a rat's indwelling catheter was connected to a tube that exited the chamber through a metal spring and a swivel and was connected to a syringe pump. After the drug delivery system was connected to the rat, the chamber was closed, and the 2 hr session was started immediately. The start of a session was signaled by the presentation of two response levers into the chamber. […] During an injection, stimulus lights above both levers were illuminated and lasted throughout a time-out period (20 s) that followed each injection. Pressing the left lever was counted but had no other programmed consequences. […]

[3] = Plasma and brain concentrations, brain to plasma ratio 24 hr after last of five 10 mg/kg PO doses (Example 7); assay type: in vivo; details: rats, 24 hr after the last of five 10 mg/kg PO doses; for concentration at 24 h: oral, 10 mg/kg
From the text: Table 21 provides plasma and brain concentrations at 24 hr after the last dose of five daily P0 doses of 4ET-03-053.

[4] = system: eIF4E phosphorylation at Serine 209 in HEK 293 cells; experiment: eIF4E phosphorylation in HEK 293 cells (phospho-specific antibody, fluorescent plate reader); assay type: cell-based; details: Homo sapiens, HEK293; eIF4E phosphorylation at Serine 209, 2 hours exposure; read-out: HEK 293 cell;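 also: Well-level p-eIF4E immunofluorescence normalized to DAPI signal, expressed as percent eIF4E phosphorylation, with IC50 derived from concentration-response curves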
[5] = system: IL-6 evoked grimace in ICR mice; experiment: IL-6 evoked grimace test; assay type: in vivo; details: PO 1 hr prior to IL-6 (4ET-03-053: 10 mg/kg)
Description: Male and female Institute for Cancer Research (ICR) mice were used in these experiments. Mice were bred in house at University of Texas at Dallas and used at between 12 and 24 weeks of age. Mice were habituated to plexiglass boxes of approximately 4×6 inches in size with openable tops. Habituation took place over 2 days with animals exposed to the boxes for at least 30 min. A blinded observer scored baseline grimacing using the method previously described by Mogil and colleagues (Langford D J, et al. “Coding of facial expressions of pain in the laboratory mouse” Nat Methods 7:447-449 (2010)). On test day, mice were given test compounds 1 hr prior to injection of interleukin 6 (human recombinant IL-6, R&D Systems) which was given at a dose of 0.1 ng in saline via an intraplantar injection as described previously (Moy J K, et al. “The MNK-eIF4E Signaling Axis Contributes to Injury-Induced Nociceptive Plasticity and the Development of Chronic Pain” J Neurosci. 37:7481-7499 (2017)). Test compounds were given orally (PO) via a flexible oral gavage canula built for mice. 4ET-03-053 is efficacious in the IL-6 evoked grimace test in mice (PO; 10 mg/kg).
Effect sizes were calculated per mouse by subtracting the baseline grimace score from the sum of the grimace scores for 1 and 3 hr time points.

## Cc1cc(Nc2cc(N)ncn2)c(=O)n2c1C(=O)NC21CCC2(CC2)CC1 [4ET-03-053, 6″-((6-Aminopyrimidin-4-yl)amino)-8″-methyl-2″H-dispiro[cyclopropane-1,1′-cyclohexane-4′,3″-imidazo[1,5-a]pyridine]-1″,5″-dione]
[1]
  inhibition of phosphorylation of eIF4E in the brain (cortex): not observed
[1]; 2 hours post dose
  inhibition of eIF4E phosphorylation in DRGs: significant inhibition
  inhibition of eIF4E phosphorylation in sciatic nerve: significant inhibition
  inhibition of eIF4E phosphorylation in spleen: significant inhibition
[2]
  Mean Difference, Šídák's multiple comparisons test: 1.500
  Summary, Šídák's multiple comparisons test: ns
  addictive potential: negligible addictive potential
  numbers of infusions, multiple comparisons test: 0.05 mg/kg 4ET-03-053 and subsequent oxycodone: significant differences
  numbers of infusions, multiple comparisons test: 0.1 mg/kg 4ET-03-053 and the final oxycodone test: significant differences
[2]; 0.05 mg/kg
  Mean Difference, Šídák's multiple comparisons test: −8.041
  Summary, Šídák's multiple comparisons test: ns
[2]; 0.15 mg/kg
  Mean Difference, Šídák's multiple comparisons test: 5.441
  Summary, Šídák's multiple comparisons test: ns
[3]; male, Sprague-Dawley, rat, brain homogenate, brain homogenate, individual animals (n = 3), read-out: Tissue Homogenate Conc.
  concentration at 24 h: 75.6 ng/mL
[3]; male, Sprague-Dawley, rat, brain homogenate, brain homogenate, mean, read-out: Tissue Homogenate Conc., Mean
  concentration at 24 h: 85.6 ng/mL
[3]; male, Sprague-Dawley, rat, brain, brain, read-out: Mean Tissue
  concentration at 24 h: 342 ng/g
[3]; male, Sprague-Dawley, rat, plasma, plasma, individual animals (n = 3), read-out: Plasma Conc.
  concentration at 24 h: 2390 ng/mL
[3]; male, Sprague-Dawley, rat, plasma, plasma, mean, read-out: Plasma Conc., Mean
  concentration at 24 h: 2670 ng/mL
[3]; male, Sprague-Dawley, rat, brain to plasma, read-out: Mean Tissue/Plasma Conc. Ratio
  Kp at 24 h: 0.128
[3]; brain homogenate, individual animals (n = 3)
  Tissue Homogenate Conc.: 88.2 ng/mL and 93.0 ng/mL
[3]; plasma, individual animals (n = 3)
  Plasma Conc.: 2740 ng/mL and 2880 ng/mL
[4]
  IC50: 10.1 nM
[5]
  efficacy in the IL-6 evoked grimace test: efficacious
